Measured values as given in patent publication US8802895B2, “Amide derivatives of benzene-sulfonanilide, pharmaceutical composition thereof and method for cancer treatment using the same” (Cleveland State University, priority 2010, dated 2014).

Tests used:
Format in all cases: cell-based
UACC-62 = assay: NCIDTP 60 cancer cell lines screening, Melanoma panel
HCT-15 = assay: NCIDTP 60 cancer cell lines screening, Colon Cancer panel
SNB-19 = assay: NCIDTP 60 cancer cell lines screening, CNS Cancer panel
U251 = assay: as above
SK-MEL-28 = assay: NCIDTP 60 cancer cell lines screening, Melanoma panel
NCI/ADR-RES = assay: NCIDTP 60 cancer cell lines screening, Ovarian Cancer panel
RPMI-8226 = assay: NCIDTP 60 cancer cell lines screening, Leukemia panel
HT29 = assay: NCIDTP 60 cancer cell lines screening, Colon Cancer panel
NCI-H226 = assay: NCIDTP 60 cancer cell lines screening, Non-Small Cell Lung Cancer panel
EKVX = assay: as above

Cc1ccc(C)c(COc2cc(NC(=O)c3ccc4c(c3)OCO4)ccc2N(C)S(C)(=O)=O)c1 [Compound #10, Benzo[1,3]dioxole-5-carboxylic acid [3-(2,5-dimethyl-benzyloxy)-4-(methanesulfonyl-methyl-amino)-phenyl]-amide]
GI50 (UACC-62; Homo sapiens, UACC-62): 0.414 µM
CC50 (UACC-62; Homo sapiens, UACC-62, read-out: LC50): > 100 µM
TGI (UACC-62; UACC-62): >1.00E−4 Molar
Percent Growth (UACC-62; UACC-62, Log10 Concentration −4.0 Molar): 14%
Percent Growth (UACC-62; UACC-62, Log10 Concentration −5.0 Molar): 15%
Percent Growth (UACC-62; UACC-62, Log10 Concentration −6.0 Molar): 37%
Percent Growth (UACC-62; UACC-62, Log10 Concentration −7.0 Molar): 71%
Percent Growth (UACC-62; UACC-62, Log10 Concentration −8.0 Molar): 94%
TGI (HCT-15; HCT-15): >1.00E−4 Molar
Percent Growth (HCT-15; HCT-15, Log10 Concentration −4.0 Molar): 17%
Percent Growth (HCT-15; HCT-15, Log10 Concentration −5.0 Molar): 17%
Percent Growth (HCT-15; HCT-15, Log10 Concentration −6.0 Molar): 22%
Percent Growth (HCT-15; HCT-15, Log10 Concentration −7.0 Molar): 74%
Percent Growth (HCT-15; HCT-15, Log10 Concentration −8.0 Molar): 96%
GI50 (HCT-15; Homo sapiens, HCT-15): 0.289 µM
CC50 (HCT-15; Homo sapiens, HCT-15, read-out: LC50): > 100 µM
GI50 (SNB-19; Homo sapiens, SNB-19): 0.537 µM
CC50 (SNB-19; Homo sapiens, SNB-19, read-out: LC50): > 100 µM
TGI (SNB-19; SNB-19): >1.00E−4 Molar
Percent Growth (SNB-19; SNB-19, Log10 Concentration −4.0 Molar): 39%
Percent Growth (SNB-19; SNB-19, Log10 Concentration −5.0 Molar): 30%
Percent Growth (SNB-19; SNB-19, Log10 Concentration −6.0 Molar): 36%
Percent Growth (SNB-19; SNB-19, Log10 Concentration −7.0 Molar): 89%
Percent Growth (SNB-19; SNB-19, Log10 Concentration −8.0 Molar): 93%
CC50 (U251; Homo sapiens, U-251, read-out: LC50): > 100 µM
GI50 (U251; Homo sapiens, U-251, U251): 0.266 µM
TGI (U251; U251): 2.19E−5 Molar
Percent Growth (U251; U251, Log10 Concentration −4.0 Molar): −16%
Percent Growth (U251; U251, Log10 Concentration −5.0 Molar): 8%
Percent Growth (U251; U251, Log10 Concentration −6.0 Molar): 15%
Percent Growth (U251; U251, Log10 Concentration −7.0 Molar): 76%
Percent Growth (U251; U251, Log10 Concentration −8.0 Molar): 97%
GI50 (SK-MEL-28; Homo sapiens, SK-MEL-28): 0.692 µM
CC50 (SK-MEL-28; Homo sapiens, SK-MEL-28, read-out: LC50): > 100 µM
TGI (SK-MEL-28; SK-MEL-28): >1.00E−4 Molar
Percent Growth (SK-MEL-28; SK-MEL-28, Log10 Concentration −4.0 Molar): 50%
Percent Growth (SK-MEL-28; SK-MEL-28, Log10 Concentration −5.0 Molar): 49%
Percent Growth (SK-MEL-28; SK-MEL-28, Log10 Concentration −6.0 Molar): 44%
Percent Growth (SK-MEL-28; SK-MEL-28, Log10 Concentration −7.0 Molar): 83%
Percent Growth (SK-MEL-28; SK-MEL-28, Log10 Concentration −8.0 Molar): 91%
TGI (NCI/ADR-RES): 4.07E−7 Molar
GI50 (NCI/ADR-RES; Homo sapiens): 0.0562 µM
CC50 (NCI/ADR-RES; Homo sapiens, read-out: LC50): > 100 µM
Percent Growth (NCI/ADR-RES; Log10 Concentration −4.0 Molar): −20%
Percent Growth (NCI/ADR-RES; Log10 Concentration −5.0 Molar): −12%
Percent Growth (NCI/ADR-RES; Log10 Concentration −6.0 Molar): −22%
Percent Growth (NCI/ADR-RES; Log10 Concentration −7.0 Molar): 34%
Percent Growth (NCI/ADR-RES; Log10 Concentration −8.0 Molar): 98%
GI50 (RPMI-8226; Homo sapiens, RPMI-8226): 0.29 µM
CC50 (RPMI-8226; Homo sapiens, RPMI-8226, read-out: LC50): > 100 µM
Percent Growth (RPMI-8226; RPMI-8226, Log10 Concentration −4.0 Molar): 6%
Percent Growth (RPMI-8226; RPMI-8226, Log10 Concentration −5.0 Molar): −2%
Percent Growth (RPMI-8226; RPMI-8226, Log10 Concentration −6.0 Molar): 14%
Percent Growth (RPMI-8226; RPMI-8226, Log10 Concentration −7.0 Molar): 81%
Percent Growth (RPMI-8226; RPMI-8226, Log10 Concentration −8.0 Molar): 93%
TGI (HT29; HT29): 4.19E−7 Molar
Percent Growth (HT29; HT29, Log10 Concentration −4.0 Molar): −48%
Percent Growth (HT29; HT29, Log10 Concentration −5.0 Molar): −48%
Percent Growth (HT29; HT29, Log10 Concentration −6.0 Molar): −26%
Percent Growth (HT29; HT29, Log10 Concentration −7.0 Molar): 44%
Percent Growth (HT29; HT29, Log10 Concentration −8.0 Molar): 101%
CC50 (HT29; Homo sapiens, HT-29, read-out: LC50): > 100 µM
GI50 (HT29; Homo sapiens, HT-29, HT29): 0.0772 µM
inhibition of cancer cell growth (NCI screening results, in words) (HT29; many types of cancer cell including HT29 colon cancer cells): very potent to inhibit the growth
GI50 (NCI-H226; Homo sapiens, NCI-H226): 0.686 µM
CC50 (NCI-H226; Homo sapiens, NCI-H226, read-out: LC50): > 100 µM
TGI (NCI-H226; NCI-H226): >1.00E−4 Molar
Percent Growth (NCI-H226; NCI-H226, Log10 Concentration −4.0 Molar): 16%
Percent Growth (NCI-H226; NCI-H226, Log10 Concentration −5.0 Molar): 20%
Percent Growth (NCI-H226; NCI-H226, Log10 Concentration −6.0 Molar): 42%
Percent Growth (NCI-H226; NCI-H226, Log10 Concentration −7.0 Molar): 93%
Percent Growth (NCI-H226; NCI-H226, Log10 Concentration −8.0 Molar): 87%
TGI (EKVX): >1.00E−4 Molar
GI50 (EKVX; Homo sapiens): 0.598 µM
CC50 (EKVX; Homo sapiens, read-out: LC50): > 100 µM
Percent Growth (EKVX; Log10 Concentration −4.0 Molar): 33%
Percent Growth (EKVX; Log10 Concentration −5.0 Molar): 25%
Percent Growth (EKVX; Log10 Concentration −6.0 Molar): 39%
Percent Growth (EKVX; Log10 Concentration −7.0 Molar): 88%
Percent Growth (EKVX; Log10 Concentration −8.0 Molar): 94%
